{
  "source": "patent US20040224943A1",
  "about": "“Method of lowering body temperature with (R) - 2,3-benzodiazepines” (priority 2003, published 2004)",
  "key": {"[1]": {"test_system": "mice", "conditions": "cited from earlier work"}, "[2]": {"test_system": "rats", "conditions": "cited from earlier work"}, "[3]": {"test_system": "mice", "test": "Stress Induced Hyperthermia (SIH) assay", "type": "in vivo", "conditions": "for lowering the core body temperature: 64 mg/kg intraperitoneally 60 minutes before T1, at both T1 and T2", "protocol": "In this assay, two successive temperature measurements are performed, the first, a basal measurement and the second, a measurement of a stress-enhanced temperature. The difference between the two measurements (delta T) is compared in animals treated with a test compound versus animals treated with vehicle alone to determine the test compound's activity in lowering body temperature. […] Besides the effect of drugs on the stress-enhanced temperature (T2), this test also directly measures intrinsic effects of drugs on the core body temperature (T1). Thus a test compound that reduces T2 and thus yields a lower delta T has utility in therapies that are directed to lowering the body temperature of an individual, such as perimenopause and menopause.\nMice, individually housed overnight, were subjected to two sequential rectal temperature measurements ten minutes apart. The first measurement is the basal temperature (T1), the second one the stress-enhanced temperature (T2). The difference (delta T) is the stress-induced hyperthermia. See, Van der Heyden et al., “Stress-induced hyperthermia in singly housed mice,” Physiology and Behavior, 463-470, (1997).\nTest animals (group housed mice) were assigned to five groups of ten animals each. The test groups were dosed according to Table 2 below.\nThe test animals were isolated in an experimental room approximately one hour before lights off on the day before the test. On the day of testing, animals were taken quietly from the cage, held in a supine position, the rectal temperature was measured and the animal was placed back into the cage. The same procedure was repeated 10 minutes later. The first temperature (T1), the second temperature (T2) and the difference (delta T) were recorded. The test compounds were administered intraperitonealy 60 minutes before T1, in order to prevent the stress of being injected from affecting the temperature measurements."}, "[4]": {"test_system": "central BZ receptors", "conditions": "cited from earlier work"}, "[5]": {"target": "peripheral BZ receptors (Homo sapiens, UniProt P30536)", "sequence (P30536 whole entry)": "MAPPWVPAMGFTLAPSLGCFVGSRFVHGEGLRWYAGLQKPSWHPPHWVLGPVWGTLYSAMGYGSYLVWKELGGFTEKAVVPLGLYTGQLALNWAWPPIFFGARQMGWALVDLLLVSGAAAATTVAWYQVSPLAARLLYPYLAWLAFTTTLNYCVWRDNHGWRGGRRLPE", "conditions": "cited from earlier work"}, "[6]": {"test_system": "lymphocyte", "conditions": "in vitro, cited from earlier work"}, "[7]": {"test_system": "mice", "conditions": "reported in U.S. Pat. No. 4,322,346; cited from earlier work"}},
  "data": [
    {"smiles": "CCC1C(C)=NN=C(c2ccc(O)c(OC)c2)c2cc(OC)c(O)cc21", "note": "(stereo not drawn) [Compound 5, 1-(3-methoxy-4-hydroxyphenyl)-4-methyl-5-ethyl-7-hydroxy-8-methoxy-5H-2,3-benzodiazepine]", "values": [
      {"measurement": "inhibition of aggression", "setting": "[1]", "value": 28.6, "unit": "%"},
      {"measurement": "inhibition of muricide", "setting": "[2]", "value": 20, "unit": "%"}
    ]},
    {"smiles": "CC[C@H]1C(C)=NN=C(c2ccc(OC)c(OC)c2)c2cc(OC)c(OC)cc21", "note": "[(R)-tofisopam, (R)-1-(3,4-dimethoxyphenyl)-4-methyl-5-ethyl-7,8-dimethoxy-5H-2,3-benzodiazepine]", "values": [
      {"measurement": "lowering the core body temperature", "setting": "[3]", "value": "demonstrated therapeutic activity"},
      {"measurement": "sedation, abnormal gait, ptosis, muscle tone, lacrimation, reactivity to touch", "setting": "[3]; 64 mg/kg intraperitoneally, compared with (S)-enantiomer or racemate", "value": "less sedation, abnormal gait, or ptosis, decreased muscle tone, decreased lacrimation, or decreased reactivity to touch"}
    ]},
    {"smiles": "CCC1C(C)=NN=C(c2ccc(OC)c(OC)c2)c2cc(OC)c(OC)cc21", "note": "(racemic) [tofisopam]", "values": [
      {"measurement": "lowering the core body temperature", "setting": "[3]", "value": "demonstrates activity in lowering the core body temperature"},
      {"measurement": "interaction with central BZ receptors", "setting": "[4]", "value": "does not interact"},
      {"measurement": "binding to peripheral BZ receptors", "setting": "[5]", "value": "binds only weakly"},
      {"measurement": "IL-2 production", "setting": "[6]; mitogen-induced", "value": "enhances"},
      {"measurement": "mitogen-induced lymphocyte proliferation", "setting": "[6]", "value": "enhances"}
    ]},
    {"smiles": "CCC1C(C)=NN=C(c2ccc(O)c(OC)c2)c2cc(OC)c(OC)cc21", "note": "(stereo not drawn) [Compound 3, 1-(3-methoxy-4-hydroxyphenyl)-4-methyl-5-ethyl-7,8-dimethoxy-5H-2,3-benzodiazepine]", "values": [
      {"measurement": "inhibition of aggression", "setting": "[1]", "value": 0, "unit": "%"},
      {"measurement": "inhibition of muricide", "setting": "[2]", "value": 0, "unit": "%"},
      {"measurement": "narcosis-potentiating activity", "setting": "[7]", "value": "narcosis-potentiating activity"}
    ]},
    {"smiles": "CCC1C(C)=NN=C(c2ccc(OC)c(OC)c2)c2cc(OC)c(O)cc21", "note": "(stereo not drawn) [Compound 1, 1-(3,4-dimethoxyphenyl)-4-methyl-5-ethyl-7-hydroxy-8-methoxy-5H-2,3-benzodiazepine]", "values": [
      {"measurement": "inhibition of aggression", "setting": "[1]", "value": 0, "unit": "%"},
      {"measurement": "inhibition of muricide", "setting": "[2]", "value": 20, "unit": "%"}
    ]},
    {"smiles": "CC[C@@H]1C(C)=NN=C(c2ccc(OC)c(OC)c2)c2cc(OC)c(OC)cc21", "note": "[(S)-tofisopam, (S)-1-(3,4-dimethoxyphenyl)-4-methyl-5-ethyl-7,8-dimethoxy-5H-2,3-benzodiazepine]", "values": [
      {"measurement": "lowering the core body temperature", "setting": "[3]", "value": "more active than either the racemate or the (R)-enantiomer"}
    ]}
  ]
}
